Assays:
[1] = target: 3R/4R-tau aggregates in AD tissue (Homo sapiens, UniProt P10636); test: Competition binding vs [^3H]OXD-2115 in AD tissue homogenates; settings: vs [^3H]OXD-2115, AD tissue homogenates, n = 1
Protocol: Fresh frozen, autopsy-confirmed human PD anterior cingulate cortex brain tissue blocks (1 cm^3) were obtained from Dr. Thomas Beach at Banner/Sun Health AZ with funding from the Michael J. Fox Foundation and contained frequent α-synuclein aggregates and no other detectable aggregated amyloid species. The frozen tissue blocks were prepared for the binding assays as previously described[47],[48], except that equal quantities of the homogenates of three AD brains (AD1-AD3, Table S1) were pooled, as were homogenates from three PSP brains (PSP1-PSP3), three CBD brains (CBD1-CBD3), three Pick’s brains (PiD1-PiD3), and 4 PD brains (PD1-PD4) in order to help minimize the inter-subject variability within the different neuropathological groups. Individual subcortical brain tissues from a PSP subject (PSP4) and a CBD subject (CBD4), as well as with the middle frontal cortex of a control subject, were prepared for the binding assays as previously described[47],[48].
The equilibrium inhibition constant (Ki) values of the unlabeled compounds were determined versus tritium-labeled radioligands using published methods.

MAO-A = target: T1, MAO-A (Homo sapiens, UniProt P21397); test: In vitro pharmacology screen (Eurofins): MAO-A; assay type: binding; settings: read-out: interaction with MAO-A (% inhibition)
T1 construct: purchased Eurofins, France (contract screening)
T1 sequence (P21397 1-527): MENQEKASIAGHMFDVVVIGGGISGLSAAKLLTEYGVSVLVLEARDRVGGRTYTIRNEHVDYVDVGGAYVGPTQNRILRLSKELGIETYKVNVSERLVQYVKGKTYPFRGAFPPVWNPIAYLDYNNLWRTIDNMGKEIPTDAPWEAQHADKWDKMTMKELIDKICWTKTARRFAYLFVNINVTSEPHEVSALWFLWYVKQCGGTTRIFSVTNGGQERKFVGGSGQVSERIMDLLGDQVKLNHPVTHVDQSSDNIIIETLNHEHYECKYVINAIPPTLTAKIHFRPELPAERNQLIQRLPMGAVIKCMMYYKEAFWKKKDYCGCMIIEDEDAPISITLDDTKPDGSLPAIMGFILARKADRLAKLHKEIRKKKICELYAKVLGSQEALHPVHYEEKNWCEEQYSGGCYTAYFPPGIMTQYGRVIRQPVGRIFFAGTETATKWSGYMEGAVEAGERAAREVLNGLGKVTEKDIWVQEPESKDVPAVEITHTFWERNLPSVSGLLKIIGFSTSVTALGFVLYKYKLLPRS
Protocol: OXD-2314 binding to CNS receptors was calculated as a percentage of inhibition of a receptor-specific radioligand. Enzyme inhibition was calculated as the percent inhibition of baseline enzyme activity where inhibition above 50% was considered significant. […] Norepinephrine transports are expressed in low concentration throughout the brain and its relative concentration are not affected by aging or neurodegeneration. 5-lipoxygenase may be overexpressed in aging brain and play some role in neurodegeneration, which could be necessary to further investigate in vivo[42]. Off-target binding to monoamine oxidase A and B (MAO-A and MAO-B) has been seen with some tau PET radiotracers[43],[44].

[2] = Whole-body PET-CT biodistribution and dose estimation in rats; assay type: in vivo
Excerpt: Six rats (3 male, 19.9 ± 6.2 MBq; and 3 female, 20.8 ± 3.2 MBq) were imaged using PET-CT for whole-body biodistribution of radioactivity and dose estimation using standard mass and density of the organs for adult male and female subjects, respectively (Figure S17). […] The estimated whole-body effective dose was 21.3 ± 3.1 and 22.5 ± 0.9 µSv/MBq for adult male and female models, respectively, with the highest absorbed dose of 50.6 ± 16.9 µGy/MBq in the large intestine.
A total of 8 healthy adult rats (Sprague-Dawley, 384 ± 56 g; 4/4 M/F) underwent PET imaging following bolus injection of [^18F]OXD-2314 (20.5 ± 4.1 MBq), with two animals (M/F) scanned for 120 min with the head in the centre of PET field-of-view (FOV) whereas six animals (3/3 M/F) scanned for 180 min at three bed positions (head-to-bottom) with 15 frames (2×15 s, 2×30 s, 2×60 s, 1×120 s, 1×180 s, 2×240 s, 2×300 s, and 3×600 s) to cover the whole body. PET images were acquired using a nanoScan™ PET/CT scanner (Mediso, Budapest, Hungary) with rats anesthetized under isoflurane in O2 (1.5–2%, 1 L/min) throughout the imaging session and monitored closely for body temperature and respiration rate. A scout CT was acquired for PET FOV positioning, then a material map CT image was acquired for PET corrections of attenuation and scatter and for PET/CT co-registration to define anatomic brain regions of interest. For the brain scans, aacquired list-mode data were sorted into thirty-nine three-dimensional (3D) (3×5 s, 3×15 s, 3×20 s, 7×60 s, 17×180 s, and 6×600 s), true sinograms (ring difference 84). The 3D sinograms were converted in 2D sinograms using Fourier rebinning with corrections for detector geometry, efficiencies, attenuation, and scatter before image reconstruction using 2D filtered back projection with a Hann filter at a cut-off of 0.50 cm^−1. The analytical reconstruction was also used for dose assessment of the multi-frame whole-body images. All data were corrected for dead time and were decay-corrected to the start of acquisition. Iteratively reconstructed images with the manufacturer’s proprietary 3D algorithm (6 subsets, 4 iterations) were used for PET and CT co-registration, for co-registration of subject’s CT with a stereotactic MR atlas of brain[51], for organ region-of-interest (ROI) placement, and for presentation in figures. Filtered back projection images were used to extract regional brain and organ time-activity curves (TACs) with VivoQuant® 2020 software (Invicro, Needham, MA, USA) and Amide (1.0.4)[52]. The selected organs (a total of 12) include brain, lungs, heart wall, heart content, liver, stomach content, spleen, kidneys, small intestine content, upper large intestine content, lower large intestine content, and urinary bladder content. Normalized cumulated activities of each organ were calculated using trapezoidal integration of the area under the TACs plus extrapolation of the TAC to infinity with natural decay of the radiotracer. Dose assessment was performed with OLINDA/EXM 1.1 to calculate the effective dose and the effective dose equivalent. SUV were calculated by normalizing regional radioactivity for injected radioactivity and body weight.

Sequence of 3R/4R-tau aggregates in AD tissue (P10636 623-695 limits assumed): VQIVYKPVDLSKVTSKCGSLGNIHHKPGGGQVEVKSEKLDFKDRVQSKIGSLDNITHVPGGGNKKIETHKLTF

| Compound | Ki [1] | inhibition at 10 µM (MAO-A) | estimated whole-body effective dose ([2]; adult female model, from rat data) | estimated whole-body effective dose ([2]; adult male model, from rat data) | highest absorbed dose, large intestine ([2]; from rat data) | uptake of radioactivity (normalized cumulated activity), large intestines ([2]; rats, n = 6) | uptake of radioactivity (normalized cumulated activity), liver ([2]; rats, n = 6) | uptake of radioactivity (normalized cumulated activity), small intestine ([2]; rats, n = 6) |
| --- | --- | --- | --- | --- | --- | --- | --- | --- |
| COC1CCCN(c2ccc(-c3cc4cc(O)ccc4[nH]3)c(F)n2)C1 (centres unmarked) [OXD-2314, 2-(2-fluoro-6-(3-methoxypiperidin-1-yl)pyridin-3-yl)-1H-indol-5-ol] | 8.8 nM | -1.7% |  |  |  |  |  |  |
| CO[C@H]1CCCN(c2ccc(-c3cc4cc(O)ccc4[nH]3)c([18F])n2)C1 [[^18F]OXD-2314] |  |  | 22.5 ± 0.9 µSv/MBq | 21.3 ± 3.1 µSv/MBq | 50.6 ± 16.9 µGy/MBq | 0.067 ± 0.032 MBqOrgan⋅hr/MBqInjected | 0.147 ± 0.023 MBqOrgan⋅hr/MBqInjected | 0.075 ± 0.019 MBqOrgan⋅hr/MBqInjected |

— publication PMC11178805, “Ligand-based design of [^18F]OXD-2314 for PET imaging in non-Alzheimer’s disease tauopathies” (Nature Communications, 2024)
